Data as given in patent US6465612B1, “Synthetic peptides, conjugation reagents and methods” (The Regents of the University of California, priority 1998, dated 2002).
Starred links: 1 amine or outer side, 2 acyl side, 3 side chain; linkers in the order of their positions; H or OH if unused. Non-standard residues stand in square brackets, D forms with d. Residues, ends and D or L forms follow the SMILES beside them. No end group written: not given here. ξ: configuration not given here. *: point of attachment. X1 = CC(=O)N[C@@H]1[C@@H](O)[C@@H](O)[C@@H](C=NO[C@@H]2O[C@H](CO)[C@H](O)[C@H](O)[C@H]2O)O[C@@H]1*; X2 = CC(=O)N[C@H]1[C@@H](ON=C(C)C[C@H](N[*:1])C(=O)[*:2])O[C@H](CO)[C@H](O)[C@@H]1O; αGalNAc = CC(=O)N[C@@H]1[C@@H](O)[C@@H](O)[C@@H](CO)O[C@@H]1*; Thr(3ξ) = CC(O)[C@H](N)C(=O)O

What was measured:
[1] = system: E. coli D22; assay: Bacterial growth inhibition assays (Example IV); format: cell-based
Description: General methods: Galactose oxidase (EC 1.1.3.9) (450 units/mg) was purchased from Sigma. All chemical reagents were obtained from commercial suppliers and used without further purification. For flash chromatography, 230-400 mesh silica gel 60 (E. Merck No. 9385) was employed. Analytical thin layer chromatography (tlc) was conducted on Analtech Uniplate silica gel plates with detection by ceric ammonium molybdate and/or by UV light. Reversed-phase high pressure liquid chromatography (RP-HPLC) was performed on a Rainin Dynamax SD-200 system using Microsorb and Dynamax C18 reversed-phase columns (analytical: 4.6 mm ID×25 cm, 1 mL/min; semi-preparative: 10 mm ID×25 cm, 3 mL/min), and ultraviolet detection (230 nm) was performed with a Rainin Dynamax UV-1 detector. The E. coli strain D22 used in bacterial growth inhibition assays was obtained from the E. Coli Genetic Stock Center at Yale University.
Bacterial growth inhibition assays. […] Peptide concentrations were determined by measuring dry weight, and assuming 80% of that weight was peptide and the remainder water and salts. […] Growth was determined by measuring the absorbance at 595 nm on a BioRad 550 microplate reader. Percent inhibition was defined as ((Ao−Ax)/Ao)*100), where Ao was the absorbance of a control well lacking peptide and Ax was the absorbance of a well with peptide.

[2] = system: E. coli D22; assay: growth inhibition assay (Example II); format: cell-based; conditions: for IC50: E. coli D22 in LB media with streptomycin, 24 h at rt, absorbance at 415 nm, read-out: IC50 in blocking bacterial growth
Description: 10. The growth inhibition assay was performed essentially as described by Bulet et al.^3 Sterile 96-well plates were used, with a final volume of 100 μL per well. This volume consisted of 90 μL of mid-logarithmnic phase culture of E. coli D22 in LB media containing streptomycin (50 μg/mL), added to 10 μL of serially diluted peptide (native drosocin (1), unglycosylated drosocin or neoglycopeptide 2) in water. Final peptide concentrations ranged from 10^−8 to 10^−5 M. Plates were incubated for 24 h at rt. Bacterial growth was determined by measuring the absorbance at 415 nm on a BioRad 550 microplate reader. Measurements were taken at t=0 h and t=24 h, and the change in absorbance (optical density) was recorded.

[3] = system: bacterial growth; conditions: cited from earlier work; for enhancement of bacteriostatic potency by the O-linked glycan (GalNAc residue) at Thr11: glycosylated vs unglycosylated peptide

Molecule	IC50 [2]	enhancement of bacteriostatic potency by the O-linked glycan (GalNAc residue) at Thr11 [3]	also measured
CC[C@H](C)[C@H](NC(=O)[C@@H]1CCCN1C(=O)[C@H](CCCNC(=N)N)NC(=O)[C@@H]1CCCN1C(=O)[C@H](Cc1c[nH]cn1)NC(=O)[C@H](CO)NC(=O)[C@@H](NC(=O)[C@@H]1CCCN1C(=O)[C@H](CCCNC(=N)N)NC(=O)[C@@H]1CCCN1C(=O)[C@H](CO)NC(=O)[C@H](Cc1ccc(O)cc1)NC(=O)[C@@H]1CCCN1C(=O)[C@H](CCCNC(=N)N)NC(=O)[C@@H]1CCCN1C(=O)[C@H](CCCCN)NC(=O)CN)[C@@H](C)O[C@H]1O[C@H](C=NO[C@@H]2O[C@H](CO)[C@H](O)[C@H](O)[C@H]2O)[C@H](O)[C@H](O)[C@H]1NC(C)=O)C(=O)N[C@@H](CCCNC(=N)N)C(=O)N[C@H](C(=O)O)C(C)C [Glycopeptide 5] (H-GKPRPYSPRPT(X1)SHPRPIRV-OH)	–	–	potency in blocking bacterial growth relative to unglycosylated drosocin ([1]; E. coli D22, 6 h at 25° C.): 3 to 4 fold
CC[C@H](C)[C@H](NC(=O)[C@@H]1CCCN1C(=O)[C@H](CCCNC(=N)N)NC(=O)[C@@H]1CCCN1C(=O)[C@H](Cc1c[nH]cn1)NC(=O)[C@H](CO)NC(=O)[C@@H](NC(=O)[C@@H]1CCCN1C(=O)[C@H](CCCNC(=N)N)NC(=O)[C@@H]1CCCN1C(=O)[C@H](CO)NC(=O)[C@H](Cc1ccc(O)cc1)NC(=O)[C@@H]1CCCN1C(=O)[C@H](CCCNC(=N)N)NC(=O)[C@@H]1CCCN1C(=O)[C@H](CCCCN)NC(=O)CN)C(C)O[C@H]1O[C@H](CO)[C@H](O)[C@H](O)[C@H]1NC(C)=O)C(=O)N[C@@H](CCCNC(=N)N)C(=O)N[C@H](C(=O)O)C(C)C (stereo partly drawn) [native drosocin (1), H2N-Gly-Lys-Pro-Arg-Pro-Tyr-Ser-Pro-Arg-Pro-Thr(α-D-GalNAc)-Ser-His-Pro-Arg-Pro-Ile-Arg-Val-OH] (H-GKPRPYSPRP[Thr(3ξ)](αGalNAc)SHPRPIRV-OH)	100 ± 20 nM	approximately five-fold	–
CC[C@H](C)[C@H](NC(=O)[C@@H]1CCCN1C(=O)[C@H](CCCNC(=N)N)NC(=O)[C@@H]1CCCN1C(=O)[C@H](Cc1c[nH]cn1)NC(=O)[C@H](CO)NC(=O)[C@H](CC(C)=NO[C@H]1O[C@H](CO)[C@H](O)[C@H](O)[C@H]1NC(C)=O)NC(=O)[C@@H]1CCCN1C(=O)[C@H](CCCNC(=N)N)NC(=O)[C@@H]1CCCN1C(=O)[C@H](CO)NC(=O)[C@H](Cc1ccc(O)cc1)NC(=O)[C@@H]1CCCN1C(=O)[C@H](CCCNC(=N)N)NC(=O)[C@@H]1CCCN1C(=O)[C@H](CCCCN)NC(=O)CN)C(=O)N[C@@H](CCCNC(=N)N)C(=O)N[C@H](C(=O)O)C(C)C [neoglycopeptide 2] (H-GKPRPYSPRP[X2]SHPRPIRV-OH)	160 ± 40 nM	–	potency in blocking bacterial growth relative to unglycosylated drosocin ([2]; E. coli D22, 24 h at rt): four-fold more potent
GKPRPYSPRPTSHPRPIRV [drosocin]	–	five-fold	enhancement of potency in blocking bacterial growth by a single O-linked disaccharide (Gal-GalNAc) at Thr11 ([3]; depending on the target bacterial strain): 2-8 fold
H-GKPRPYSPRPTSHPRPIRV-OH [unglycosylated drosocin]	630 ± 50 nM	–	IC50 ([1]; E. coli D22 in LB media with streptomycin, 6 h at 25° C., absorbance at 595 nm, read-out: IC50 in blocking bacterial growth): 400 ± 50 nM
